For orientation: Cmax means the maximum level reached in the sampled fluid or tissue. The term AUC(0-t) denotes exposure summed from dosing to a finite time, without extrapolation to infinity. A word on the half-life: it is the time in which the quantity being followed falls by half.

We go through one molecule from article PMC9859815 (Scientific Reports, 2023).

Where two headings read alike, the source gives them in different places.

The conditions of data set [1]: cited from earlier work.
Data set [2] is described as follows: Single-dose, 2-sequence, 2-period crossover pharmacokinetic/bioequivalence study, fasting oral administration, healthy Chinese subjects (also by CYP2C19 phenotype and gender). In kind it is in vivo. To be noted: human, plasma, mean ± SD. The method, then: Forty subjects were randomly divided into two groups, with 20 patients in each group. […] The subjects in each group fasted after 21:00 the night before administration. […] The blood samples were centrifuged at 1700 g (4 °C) for 10 min within 1 h of collection. The centrifuged plasma was immediately aliquoted into 2 tubes with corresponding labels (1 for testing, 1 for backup, the volume of plasma in each tube should not be less than 500 µL) and stored at […] until analysis. The total time from whole blood collection to centrifugation to separate plasma and then stored in […] refrigerator should not exceed 2 h.
The sample pretreatment method was the protein precipitation method.
Terminal elimination rate constant λz and the apparent terminal elimination half-life (T1/2) were also needed. AUC0–∞ (the AUC from time 0 to infinity) used the formula: AUC0–∞ = AUC0–t + Ct/λ(T1/2 = 0.693/λz) to calculate.
SAS 9.4 software was used for statistical analysis.

The conditions of data set [3]: Pakistani, cited from earlier work.

For the molecule `COc1ccc2[nH]c([S+]([O-])Cc3ncc(C)c(OC)c3C)nc2c1` (centres unmarked) [omeprazole], the highest concentration (Cmax) in data set [1] (CYP2C19 EM, Caucasians) was 285 ± 82.9 ng/mL; in data set [1] (CYP2C19 EM, Japanese), 251.1 ± 46.2 ng/mL; in data set [1] (CYP2C19 EM, West Asians), 152.4 ± 9.94 ng/mL; in data set [1] (CYP2C19 PM, East Asians (so in the source)), 538.6 ± 33.5 ng/mL; in data set [1] (CYP2C19 PM, Japanese) it was 1070.2 ± 185.3 ng/mL; in data set [3] (females), 2913 ± 610 ng/mL. Further, the Cmax in data set [3] (males) is 2006 ± 980 ng/mL. Further, the T1/2 in data set [1] (CYP2C19 EM, Caucasians) is on record as 0.71 ± 0.1 h; in data set [1] (CYP2C19 EM, West Asians), 0.9 ± 0.01 h; in data set [1] (CYP2C19 PM, Caucasians), 2.68 ± 0.3 h; in data set [1] (CYP2C19 PM, Japanese) it was 2.41 ± 0.15 h; in data set [1] (CYP2C19 PM, West Asians), 2.42 ± 0.18 h. The “AUC0–t” value in data set [1] (CYP2C19 EM, Japanese) was 618.3 ± 141.9 ng·h/mL; in data set [1] (CYP2C19 EM, Korean), 713.49 ± 555.56 ng·h/mL; in data set [1] (CYP2C19 EM, West Asian), 250.5 ± 16.1 ng·h/mL; in data set [1] (CYP2C19 EM, Whites), 635.5 ± 259.7 ng·h/mL; in data set [3] (females), 8740 ± 2230 ng·h/mL; in data set [3] (males) it was 6670 ± 4320 ng·h/mL. Besides, in data set [2] (CYP2C19 EM (N = 12)), the exposure AUC(0-t) was found to be 553 ± 391 ng·h/mL. Besides, the half-life in data set [2] (CYP2C19 PM (N = 4)) is 2.48 ± 0.24 h.
